KR20110128542A, “Egcg를 유효성분으로 함유하는 쇼그렌 증후군, 베체트 증후군, 강직성척추염 또는 루프스의 예방 또는 치료용 조성물” (가톨릭대학교 산학협력단, priority 2010, dated 2011)
“Also recorded” adds a separate entry of the source.

Legend:
[1] = test system: IL-17 produced from Th17 cells (Th17세포); assay: IL-17 production by mouse splenocytes under Th17 differentiation conditions (ELISA of culture medium, 3 days); assay type: cell-based; conditions: Th17 conditions (anti-CD3, anti-CD28, anti-IFNr, anti-IL-4, TGF beta), EGCG 0, 1, 10, 50 uM, Fig. 1
Foxp3 mRNA = assay: RT-PCR of Foxp3 mRNA in mouse splenocytes under Th17 differentiation conditions (Treg activation); assay type: cell-based; conditions: EGCG 0, 1, 10, 50 ng/ml, Fig. 2b
Treg cells (Treg 세포) [2] = assay: Treg population in splenocytes of lupus syndrome mice under Treg differentiation conditions, FACS (CD4, CD25, Foxp3); assay type: cell-based; conditions: lupus mouse splenocytes, anti-CD3 2 ug/ml + TGF beta 5ng/ml, EGCG 10ng/ml, 72 h
IL-17 mRNA = assay: RT-PCR of IL-17 mRNA in mouse splenocytes under Th17 differentiation conditions; assay type: cell-based; conditions: EGCG 0, 1, 10, 50 ng/ml, Fig. 2a
Th17 cells (Th17 세포) = assay: Th17 cells in spleen of lupus syndrome mice, immunostaining (CD4, IL-17) and confocal microscopy; assay type: in vivo, mouse; conditions: EGCG 10uM, intraperitoneal, 10 injections, confocal microscopy, Fig. 3
Treg cells (Treg 세포) [3] = assay: Treg cells in spleen of lupus syndrome mice, immunostaining (CD4, CD25, Foxp3) and confocal microscopy; assay type: in vivo, mouse; conditions: EGCG 10uM, intraperitoneal, 10 injections, Fig. 3

## O=C(O[C@@H]1Cc2c(O)cc(O)cc2O[C@@H]1c1cc(O)c(O)c(O)c1)c1cc(O)c(O)c(O)c1 [EGCG, (-)-epigallocatechin gallate]
[1]
  amount of IL-17 cytokine produced: EGCG를 처리하지 않은 군에 비해 현저하게 감소; also recorded: EGCG 농도 의존적으로 IL-17의 생성이 감소
Foxp3 mRNA
  Foxp3 expression (mRNA): EGCG를 처리하지 않은 군에 비해 현저하게 증가; also recorded: 농도 의존적으로 점점 증가
Treg cells (Treg 세포) [2]; Splenocyte, printed 'about 10-fold or more', read-out: increase of Treg cells compared with untreated group
  fold induction at 0.01 µg/mL: ≥ 10
Treg cells (Treg 세포) [2]; untreated control 2.69, Fig. 4
  Foxp3 expression: 21.57
IL-17 mRNA
  IL-17 expression (mRNA): 농도 의존적으로 점점 감소
Th17 cells (Th17 세포)
  IL-17 expression (degree of Th17 cell differentiation), compared with control: EGCG를 처리하지 않은 대조군이 처리한 군에 비해 녹색의 IL-17이 더 많이 발현
Treg cells (Treg 세포) [3]; CD4/CD25 co-expression
  Treg cell activation in spleen: 비장에서 Treg 세포가 활성화 되었음
Treg cells (Treg 세포) [3]; spleen, confocal microscopy
  Foxp3 expression in nucleus, compared with control: 대조군에 비해 많이 발현
